Calls of active or inactive are those of the source.
Tests used:
Cytochrome P450 2C9 = Cytochrome P450 2C9 (Homo sapiens, UniProt P11712)
Cytochrome P450 2C19 = Cytochrome P450 2C19 (Homo sapiens, UniProt P33261); assay: Cytochrome panel assay with activity outcomes. Panel member name: p450-cyp2c19 Compounds with AC50 equal or less than 10 uM are considered active; assay type: functional
[1] = viability of PTEN-deleted HCT116 cells – cell-based, HCT116 PTEN knockout, dose response (AID 1047); assay type: functional;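 also: HCT116 colon tumor cells with PTEN knocked out; cells exposed to compound for 60 hours before readout; potency for loss of cell viability measured by luminescence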
[2] = viability of HCT116 lacking mutant beta-catenin – cell-based, human colon tumor, dose response (AID 1045); assay type: functional;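 also: HCT116 colon tumor cells with beta catenin knocked out; cells exposed to compound for 60 hours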
Cytochrome P450 2D6 = Cytochrome P450 2D6 (Homo sapiens, UniProt P10635);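 also: CYP2D6 member of a cytochrome P450 panel assay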
Cytochrome P450 1A2 = molecular target: T1, Cytochrome P450 1A2 (Homo sapiens, UniProt P05177);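 also: PubChem cytochrome P450 panel assay, CYP1A2 panel member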
T1 sequence (P05177 whole entry): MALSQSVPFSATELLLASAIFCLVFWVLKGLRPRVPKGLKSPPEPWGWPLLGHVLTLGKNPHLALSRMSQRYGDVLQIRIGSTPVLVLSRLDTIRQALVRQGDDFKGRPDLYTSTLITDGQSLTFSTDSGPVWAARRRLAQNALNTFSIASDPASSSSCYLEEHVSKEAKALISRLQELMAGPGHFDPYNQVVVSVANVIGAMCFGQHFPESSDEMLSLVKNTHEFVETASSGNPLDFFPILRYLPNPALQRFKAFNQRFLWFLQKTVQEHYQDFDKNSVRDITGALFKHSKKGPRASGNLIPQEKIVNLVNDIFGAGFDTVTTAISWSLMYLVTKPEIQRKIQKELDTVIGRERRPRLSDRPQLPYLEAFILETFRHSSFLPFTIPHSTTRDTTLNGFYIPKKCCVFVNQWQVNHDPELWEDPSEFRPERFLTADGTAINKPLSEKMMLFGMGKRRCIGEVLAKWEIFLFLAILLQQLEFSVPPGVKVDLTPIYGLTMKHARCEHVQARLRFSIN

[3] = Trypanosoma cruzi growth suppression in host cells – NIH3T3 host cells, beta-gal luminescence, confirmation (AID 2044); assay type: functional, cell-based;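 also: intracellular parasites grown in NIH/3T3 mouse fibroblasts as host cells; luminescent beta-galactosidase reporter signal from transgenic T. cruzi replicating inside host cells; inhibitors lower the luminescence signal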
[4] = NIH3T3 cell viability loss – ATP luminescence, mouse fibroblasts, counter-screen, dose response (AID 2010); assay type: functional, cell-based;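 also: cells exposed to compound for about 90 hours before reading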
[5] = Luminescence Cell-Based Dose Response HTS to Identify Activators of Luciferase Translation or Activity in H4 […] Cells. [Related pubchem assays: 1829 (Project Summary), 1814 (Primary HTS)]; assay type: functional
H4 = assay: Luminescence Cell-Based Dose Response HTS to Identify Activators of 5'UTR Stem-Loop Driven Prion Protein mRNA Translation in H4 Neuroglioblastoma Cells. [Related pubchem assays: 1829 (Project Summary), 1814 (Primary HTS)]; assay type: functional; conditions: Homo sapiens
[6] = Luminescence Cell-Based Dose Confirmation HTS to Identify Activators of 5'UTR Stem-Loop Driven Alpha-Synuclein mRNA Translation in H4 Neuroglioblastoma Cells. [Related pubchem assays: 1829 (Project Summary), 1814 (Primary HTS)]; assay type: functional
[7] = Luminescence Cell-Based Dose Retest to Confirm Inhibitors of Cancer Stem Cells. [Related pubchem assays (depositor defined):AID2717, AID2721]; assay type: functional; conditions: Homo sapiens
[8] = system: Streptococcus sp. 'group A'; assay: Streptococcus pyogenes SK(-)GAS viability under kanamycin – luminescence, BacTiterGlo, confirmation, counter-screen for streptokinase expression inhibitor project, dose response (AID 1900); assay type: functional, organism-based
Streptokinase A = molecular target: T2, Streptokinase A (Streptococcus pyogenes serotype M1, UniProt P10520); assay: viability-normalized secreted streptokinase activity reduction – plasminogen activation absorbance, OD405, dose response (AID 1914); assay type: functional, Streptococcus pyogenes M1 GAS;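 also: secreted streptokinase activity via plasminogen activation per viability signal from cell pellet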
T2 sequence (P10520 whole entry): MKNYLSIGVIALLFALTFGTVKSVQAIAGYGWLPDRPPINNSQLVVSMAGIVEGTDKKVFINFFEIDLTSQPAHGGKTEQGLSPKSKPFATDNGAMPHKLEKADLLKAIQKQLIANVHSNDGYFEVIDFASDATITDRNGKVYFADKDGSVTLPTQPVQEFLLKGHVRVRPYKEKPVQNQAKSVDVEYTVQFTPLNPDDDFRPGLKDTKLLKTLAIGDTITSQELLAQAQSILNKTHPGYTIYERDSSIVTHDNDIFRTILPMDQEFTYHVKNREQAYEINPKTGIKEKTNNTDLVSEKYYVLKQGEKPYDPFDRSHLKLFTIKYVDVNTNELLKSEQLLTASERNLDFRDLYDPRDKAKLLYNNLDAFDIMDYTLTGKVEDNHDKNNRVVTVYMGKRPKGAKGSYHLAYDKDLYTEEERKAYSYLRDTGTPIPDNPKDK

Streptococcus = assay: GAS UMAA2166 growth inhibition – luminescence, BacTiterGlo, counter-screen for streptokinase expression inhibitor project, dose response (AID 1915); assay type: functional, organism-based;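 also: potency for reduction of bacterial viability or growth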
INS1 = assay: INS-1E survival protection against cytokine death – cell-based, luminescence, retest, dose response (AID 449756); assay type: functional; conditions: Rattus norvegicus;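 also: cell death triggered by IL-1 beta plus TNF-alpha plus IFN-gamma mixture; protective hits raise ATP signal compared with cytokine alone wells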

Chain of Cytochrome P450 2C19 (P33261 whole entry): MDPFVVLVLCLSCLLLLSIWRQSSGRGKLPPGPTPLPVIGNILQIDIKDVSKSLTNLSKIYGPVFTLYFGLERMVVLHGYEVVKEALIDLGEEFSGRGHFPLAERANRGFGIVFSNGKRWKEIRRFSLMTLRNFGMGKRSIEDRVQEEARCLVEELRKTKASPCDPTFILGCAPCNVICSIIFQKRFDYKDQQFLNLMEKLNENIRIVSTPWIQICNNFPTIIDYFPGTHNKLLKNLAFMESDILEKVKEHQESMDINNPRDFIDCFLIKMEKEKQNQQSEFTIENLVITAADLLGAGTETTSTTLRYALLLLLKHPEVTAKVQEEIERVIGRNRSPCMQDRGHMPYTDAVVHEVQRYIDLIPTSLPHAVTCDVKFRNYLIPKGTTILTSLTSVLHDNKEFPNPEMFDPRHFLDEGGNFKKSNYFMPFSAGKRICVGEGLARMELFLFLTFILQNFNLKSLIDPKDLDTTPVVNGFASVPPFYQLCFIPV
Chain of Cytochrome P450 2C9 (P11712 whole entry): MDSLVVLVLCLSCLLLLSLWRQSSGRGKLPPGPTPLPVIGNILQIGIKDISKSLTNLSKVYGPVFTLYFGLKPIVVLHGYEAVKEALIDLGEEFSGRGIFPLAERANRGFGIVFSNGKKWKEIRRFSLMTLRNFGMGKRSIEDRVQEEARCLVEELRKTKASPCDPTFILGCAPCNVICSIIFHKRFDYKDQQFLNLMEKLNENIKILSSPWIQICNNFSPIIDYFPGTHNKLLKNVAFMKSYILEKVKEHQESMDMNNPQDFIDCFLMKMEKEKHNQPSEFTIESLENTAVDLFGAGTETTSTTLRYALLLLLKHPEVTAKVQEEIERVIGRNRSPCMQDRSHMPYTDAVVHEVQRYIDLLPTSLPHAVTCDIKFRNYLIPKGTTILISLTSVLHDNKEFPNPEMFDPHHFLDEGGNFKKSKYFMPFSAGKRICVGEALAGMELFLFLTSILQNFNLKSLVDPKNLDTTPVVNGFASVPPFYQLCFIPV
Chain of Cytochrome P450 2D6 (P10635 whole entry): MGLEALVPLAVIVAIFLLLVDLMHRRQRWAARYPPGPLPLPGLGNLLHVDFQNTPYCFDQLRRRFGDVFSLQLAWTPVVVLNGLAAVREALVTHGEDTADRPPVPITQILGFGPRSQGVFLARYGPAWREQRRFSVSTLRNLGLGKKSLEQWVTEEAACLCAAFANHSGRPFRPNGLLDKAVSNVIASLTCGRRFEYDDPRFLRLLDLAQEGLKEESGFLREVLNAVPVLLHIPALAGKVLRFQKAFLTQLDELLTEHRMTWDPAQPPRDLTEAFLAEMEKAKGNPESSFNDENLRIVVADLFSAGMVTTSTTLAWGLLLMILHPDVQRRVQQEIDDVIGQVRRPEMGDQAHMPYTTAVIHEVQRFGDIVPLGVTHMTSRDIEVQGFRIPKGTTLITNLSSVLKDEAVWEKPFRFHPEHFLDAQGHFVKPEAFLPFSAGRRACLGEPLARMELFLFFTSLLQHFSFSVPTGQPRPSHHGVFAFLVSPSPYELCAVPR

Q: With `Cc1noc(C)c1C(=O)N1CCC2(CCCN(CC(C)C)C2)CC1` as the compound, how does the AC50 (Cytochrome P450 2C9) read?
A: 39.8 µM (inconclusive)

Q: And the AC50 (Cytochrome P450 2C19; read-out: AC50)?
A: 39.8 µM (inconclusive)

Q: For `c1ccc(C(c2ccccc2)N2CCC3(CCNCC3)CC2)cc1`, which AC50 (Cytochrome P450 2C9) is on record?
A: 31.6 µM (inconclusive)

Q: What does the source list for `Cc1ccc(C23CC4CC(CC(NC(=O)N5CCN(C)CC5)(C4)C2)C3)cc1`?
A: EC50 [1]: 18 µM (active); EC50 [2]: 17.7 µM (active)

Q: With `c1ccc(-c2nnn(CCN3CCCCC3)n2)cc1` as the compound, how does the AC50 (Cytochrome P450 2D6) read?
A: 3.16 µM (inconclusive)

Q: And the AC50 (Cytochrome P450 1A2)?
A: 5.01 µM (inconclusive)

Q: For `COc1cccc(NC(=O)COC(=O)c2c3c(nc4ccccc24)CCC(C)C3)c1` (configuration not stated), which EC50 [3] is on record?
A: 2.18 µM (active)

Q: What about the EC50 [1] of the same compound?
A: 8.9 µM (active)

Q: And the EC50 [4]?
A: > 60 µM (not active)

Q: What about the EC50 [2] of the same compound?
A: 14.4 µM (active)

Q: Which EC50 [1] does the source give for `CCC1CCCCN1C(=O)CSc1nc2c3ccccc3nc-2c(O)n1C` (configuration not stated) here?
A: 21.9 µM (active)

Q: What about the EC50 [2] of the same compound?
A: 21.2 µM (active)

Q: Which AC50 (Cytochrome P450 1A2) does the source give for `Clc1ccc([C@@H](OCCN2CCCCC2)c2ccccc2)cc1` here?
A: 12.6 µM (inconclusive)

Q: And the AC50 (Cytochrome P450 2C19; read-out: AC50)?
A: 6.31 µM (inconclusive)

Q: Which AC50 (Cytochrome P450 2C9) does the source give for `O=C1CSC(c2ccccn2)N1c1ccc(Cl)c(Cl)c1` (configuration not stated) here?
A: 20 µM (inconclusive)

Q: With `CCOc1ccc(NC(=O)CN2CCN(S(=O)(=O)c3ccc(Cl)cc3)CC2)cc1` as the compound, how does the AC50 (Cytochrome P450 2C9) read?
A: 2 µM (inconclusive)

Q: And the AC50 (Cytochrome P450 2C19; read-out: AC50)?
A: 0.562 µM (inconclusive)

Q: With `O=C(CCn1nc(-c2ccc(Cl)cc2)ccc1=O)NCc1ccccn1` as the compound, how does the AC50 (Cytochrome P450 2C9) read?
A: 5.01 µM (inconclusive)

Q: And the AC50 (Cytochrome P450 1A2)?
A: 15.8 µM (inconclusive)

Q: Which results are given for `Clc1ccccc1-c1nnc2sc(-c3ccc4c(c3)OCO4)nn12`?
A: EC50 [5]: 10.9 µM (active); EC50 (H4): 57.6 µM (inconclusive); EC50 [6]: > 120 µM (not active)

Q: With `COc1ccccc1CNS(=O)(=O)c1ccc2ncc(C(=O)O)c(O)c2c1` as the compound, how does the AC50 (Cytochrome P450 2C9) read?
A: 11.2 µM (inconclusive)

Q: And the AC50 (Cytochrome P450 1A2)?
A: 10 µM (inconclusive)

Q: Which AC50 (Cytochrome P450 2C9) does the source give for `COc1ccc(CCNC(=O)CCN2C(=O)C(C)Oc3ccc(C)cc32)cc1OC` (configuration not stated) here?
A: 5.62 µM (inconclusive)

Q: For `CC(C)(C)c1c2c(c(C(C)(C)C)c3c1OCN(Cc1ccccc1)C3)OCN(Cc1ccccc1)C2`, which AC50 (Cytochrome P450 2C19) is on record?
A: inconclusive

Q: For `C[C@H]1[C@H](C)CC[C@]2(C)CC[C@]3(C)C(=CC(=O)C4[C@@]5(C)CC[C@H](O)C(C)(C)C5CC[C@]43C)[C@H]12` (some centres not stated), which AC50 [7] is on record?
A: 4.76 µM (active)

Q: Which AC50 (Cytochrome P450 2C9) does the source give for `O=C(O)c1ccccc1/C=N\N=C1c2ccccc2-c2ccccc21` here?
A: 7.94 µM (inconclusive)

Q: Which EC50 [5] does the source give for `O=C(CSc1nnc(-c2ccccn2)o1)Nc1cccc(Cl)c1` here?
A: 4.83 µM (active)

Q: What about the EC50 (H4) of the same compound?
A: > 120 µM (not active)

Q: With `O=c1c(-c2cc(F)cc(F)c2)nc2cnc(N3CCNCC3)nc2n1C1CC1` as the compound, how does the AC50 (Cytochrome P450 2C19; read-out: AC50) read?
A: 20 µM (inconclusive)

Q: Which results are given for `C=C(C)COc1ccc(-c2nc(N)ncc2-c2ccc(Cl)cc2)c(O)c1`?
A: EC50 [8]: 6.33 µM (active); AC50 [7]: 3.57 µM (active); EC50 (Streptokinase A): > 150 µM (not active); EC50 (Streptococcus): 8.12 µM (active)

Q: What does the source list for `CCc1c(C2(O)CCCCC2)[nH]c2cc(C(F)(F)F)ccc12`?
A: AC50 [7]: 2.64 µM (active); AC50 (INS1): 7.52 µM (active)

Q: With `c1cnc(Nc2nc(-c3ccc4ccccc4c3)cs2)nc1` as the compound, how does the AC50 (Cytochrome P450 2C19) read?
A: inconclusive

Q: With `c1ccc(N2CCC3(CCNCC3)CC2)cc1` as the compound, how does the AC50 (Cytochrome P450 2D6) read?
A: 15.8 µM (inconclusive)

Q: With `CNC(C)c1cc(OC)ccc1OC` (configuration not stated) as the compound, how does the AC50 (Cytochrome P450 2D6) read?
A: 25.1 µM (inconclusive)

Q: What does the source list for `CCc1ccccc1NC(=O)c1ccc(F)c(S(=O)(=O)N2CCC(C(N)=O)CC2)c1`?
A: AC50 (Cytochrome P450 2C9): 25.1 µM (inconclusive); AC50 (Cytochrome P450 2C19; read-out: AC50): 31.6 µM (inconclusive)

Q: With `Cc1cccn2c(/C=N/OCc3ccc(F)cc3)c(-c3ccc(Cl)cc3)nc12` as the compound, how does the AC50 (Cytochrome P450 2C19; read-out: AC50) read?
A: 3.16 µM (inconclusive)

Q: What does the source list for `O=C(Cn1ccs/c1=N/C(=O)C(F)(F)F)c1ccccc1`?
A: EC50 [5]: 47.9 µM (active); EC50 (H4): 81.7 µM (inconclusive); EC50 [6]: 56.9 µM (active)

Source: ChEMBL document CHEMBL1201862, “PubChem BioAssay data set” (2004)
